In US12128035B2, “Activating pyruvate kinase R” (Novo Nordisk Health Care AG, priority 2021, dated 2024):

System: p50 (PO2 at 50% hemoglobin saturation)
Assay: Phase 1: p50 (oxygen affinity) in SCD patients
Type: in vivo, human
Protocol: In SCD patients, the mean absolute change in p50, relative to baseline, measured 24 hours after a single 700 mg dose of Compound 1, was −4 mmHg.
With respect to the bar graphs representing the “Untreated” and “Treated” subjects in the SCD MAD cohort, the bar on the left side represents the P50 measured Pre-Dose, and the bar on the right side represents the P50 measured after 14 days of Compound 1, 300 mg once daily. SCD RBCs have higher P50 at baseline compared to HV RBCs. In the MAD cohort in SCD patients (300 mg QD for 14 days), the mean absolute change in p50, relative to baseline, measured 24 hours after the final dose of Compound 1, was −4 mmHg.
The oxygen affinity of RBCs was measured in patient blood using a Hemox Analyzer (TCS Scientific Corp.), an automatic system for the recording of blood oxygen equilibrium curves and related phenomena. The Hemox Analyzer was used according to standard methods to determine the hemoglobin-oxygen dissociation curves for whole blood samples, numerically characterized by the p50, the partial pressure of oxygen at which hemoglobin is 50% saturated. […] In the case of hemoglobin, the wavelength of maximum absorbance is the measuring wavelength (560 nm), while the reference wavelength is at the isosbestic point at (570 nm). The absorbance at the isosbestic point remains unchanged during the deoxygenation process of the hemoglobin, however the measuring wavelength (560 nm) undergoes a drastic change in absorbance. This change is detected by the electronic circuitry and is plotted as the log/ratio change between the two wavelengths. The log/ratio measurement at 560 nm and 570 nm is utilized to measure the optical absorbance change during the deoxygenation of the hemoglobin. Simultaneously with the measurement of the hemoglobin absorbance, the oxygen concentration is directly measured in the sample using a Clark electrode. […]

Compound: O=C([C@H](CO)c1ccccc1)N1CC2=C(C1)CN(S(=O)(=O)c1cnc3c(c1)OCCO3)C2 (single isomer, unassigned) [Compound 1]
- mean absolute change in p50, relative to baseline (SCD 300 mg QD for 14 days, 24 hours after the final dose): −4 mmHg
- p50 (Oxygen affinity curve) (SCD single 700 mg, Post-dose (24 hours), median (range), pre-dose 29.4 (26.1, 32.3)): 25.8 (23.3, 26.8)
- mean absolute change in p50, relative to baseline (SCD, 24 hours after single 700 mg dose): −4 mmHg
